Results as given in patent US10219516B2, “Molecules having pesticidal utility, and intermediates, compositions, and processes, related thereto” (priority 2015, dated 2019).

Assays:
Format in all cases: in vivo
[1] = system: Beet Armyworm (Spodoptera exigua, LAPHEG); assay: Bioassay on Beet Armyworm (BAW), 128-well diet tray assay; conditions: Species BAW (Beet Armyworm), read-out: BAW (Biological Results, rating)
Method in brief: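 Diet tray, 8 wells/compound; 50 μg/cm^2 applied to diet surface (90:10 acetone-water), dried. 1–5 L2 larvae/well; 25° C., 14:10 L:D, 5–7 d. Read-out: % mortality, mean of 8 wells.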

[2] = system: Cabbage Looper (Trichoplusia ni, TRIPNI); assay: Bioassay on Cabbage Looper (CL), 128-well diet tray assay; conditions: Trichoplusia ni; Species CL (Cabbage Looper); read-out: CL (Biological Results, rating)
Method in brief: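 Second-instar larvae, one to five per well, were placed on artificial diet surface-treated with 50 μg/cm^2 test molecule applied in 90:10 acetone-water and dried, eight wells per molecule. Trays were covered, vented and held at 25° C., 14:10 light-dark for five to seven days; percent mortality per well was averaged.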

[3] = system: Yellow Fever Mosquito (Aedes aegypti, AEDSAE); assay: Bioassay on Yellow Fever Mosquito (YFM), 96-well plate larval assay; conditions: Species YFM (Yellow Fever Mosquito)
Method in brief: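 Each well was scored for mortality after 3 days at room temperature under a non-evaporative lid. Test molecules came from DMSO masters (4000 ppm stock) diluted with water/acetone 90:10 and dispensed into six replicate plates, which were then infested with roughly 1-day-old larvae in liver-powder water.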

With CNc1ccc(NC(=O)c2cc(NC(=O)[C@H]3[C@H](c4cc(Cl)cc(Cl)c4)C3(Cl)Cl)ccc2Cl)c(C#N)c1 (relative stereo) [F237, trans-2-chloro-N-(2-cyano-4-(methylamino)phenyl)-5-(2,2-dichloro-3-(3,5-dichlorophenyl)cyclopropane-1-carboxamido)benzamide] the pest or weed control at 50 µg/cm2 [1] was 50 to 100%, the pest or weed control at 50 µg/cm2 [2] was 50 to 100% and the “YFM (Biological Results, rating)” value [3] was “A (80-100)”.
In the case of Nc1cc(NC(=O)c2cc(NC(=O)[C@H]3[C@H](c4cc(Cl)cc(Cl)c4)C3(Cl)Cl)ccc2Cl)ccc1F (relative stereo) [F238, trans-N-(3-Amino-4-fluorophenyl)-2-chloro-5-(2,2-dichloro-3-(3,5-dichlorophenyl)cyclopropane-1-carboxamido)benzamide], the pest or weed control at 50 µg/cm2 [1] is reported as 50 to 100%, the pest or weed control at 50 µg/cm2 [2] is reported as 50 to 100% and the “YFM (Biological Results, rating)” value [3] is reported as “A (80-100)”.
With CNc1cc(NC(=O)c2cc(NC(=O)[C@H]3[C@H](c4cc(Cl)cc(Cl)c4)C3(Cl)Cl)ccc2Cl)ccc1F (relative stereo) [F239, trans-2-Chloro-5-(2,2-dichloro-3-(3,5-dichlorophenyl)cyclopropane-1-carboxamido)-N-(4-fluoro-3-(methylamino)phenyl)benzamide] the pest or weed control at 50 µg/cm2 [1] was 50 to 100%, the pest or weed control at 50 µg/cm2 [2] was 50 to 100% and the “YFM (Biological Results, rating)” value [3] was “A (80-100)”.
O=C(Nc1cccc(F)n1)c1cc(NC(=O)[C@H]2[C@H](c3cc(Cl)cc(Cl)c3)C2(Cl)Cl)ccc1Cl (relative stereo) [F240, trans-2-Chloro-5-(2,2-dichloro-3-(3,5-dichlorophenyl)cyclopropane-1-carboxamido)-N-(6-fluoropyridin-2-yl)benzamide] was tested, and the pest or weed control at 50 µg/cm2 [1] was 50 to 100%, the pest or weed control at 50 µg/cm2 [2] was 50 to 100% and the “YFM (Biological Results, rating)” value [3] was “A (80-100)”.
In the case of O=C(Nc1ncc(F)cc1F)c1cc(NC(=O)[C@H]2[C@H](c3cc(Cl)cc(Cl)c3)C2(Cl)Cl)ccc1Cl (relative stereo) [F241, trans-2-Chloro-5-(2,2-dichloro-3-(3,5-dichlorophenyl)cyclopropane-1-carboxamido)-N-(3,5-difluoropyridin-2-yl)benzamide], the pest or weed control at 50 µg/cm2 [1] is reported as 50 to 100%, the pest or weed control at 50 µg/cm2 [2] is reported as 50 to 100% and the “YFM (Biological Results, rating)” value [3] is reported as “A (80-100)”.
Cc1cc(F)cnc1NC(=O)c1cc(NC(=O)[C@H]2[C@H](c3cc(Cl)cc(Cl)c3)C2(Cl)Cl)ccc1Cl (relative stereo) [F242, trans-2-Chloro-5-(2,2-dichloro-3-(3,5-dichlorophenyl)cyclopropane-1-carboxamido)-N-(5-fluoro-3-methylpyridin-2-yl)benzamide] was tested, and the pest or weed control at 50 µg/cm2 [1] was 50 to 100%, the pest or weed control at 50 µg/cm2 [2] was 50 to 100% and the “YFM (Biological Results, rating)” value [3] was “A (80-100)”.
With CN(C(=O)c1cc(NC(=O)[C@H]2[C@H](c3cc(Cl)cc(Cl)c3)C2(Cl)Cl)ccc1Cl)c1ccc(F)cc1C#N (relative stereo) [F243, trans-2-Chloro-N-(2-cyano-4-fluorophenyl)-5-(2,2-dichloro-3-(3,5-dichlorophenyl)cyclopropane-1-carboxamido)-N-methylbenzamide] the pest or weed control at 50 µg/cm2 [1] was 50 to 100%, the pest or weed control at 50 µg/cm2 [2] was 50 to 100% and the “YFM (Biological Results, rating)” value [3] was “A (80-100)”.
For CN(C(=O)c1cc(NC(=O)[C@H]2[C@H](c3cc(Cl)c(Cl)c(Cl)c3)C2(Cl)Cl)ccc1Cl)c1ccc(F)cc1C#N (relative stereo) [F244, trans-2-Chloro-N-(2-cyano-4-fluorophenyl)-5-(2,2-dichloro-3-(3,4,5-trichlorophenyl)cyclopropane-1-carboxamido)-N-methylbenzamide], the pest or weed control at 50 µg/cm2 [1] was 50 to 100%, the pest or weed control at 50 µg/cm2 [2] was 50 to 100% and the “YFM (Biological Results, rating)” value [3] was “A (80-100)”.
In the case of Nc1c(F)ccc(NC(=O)c2cc(NC(=O)[C@H]3[C@H](c4cc(Cl)cc(Cl)c4)C3(Cl)Cl)ccc2Cl)c1F (relative stereo) [F245, trans-N-(3-Amino-2,4-difluorophenyl)-2-chloro-5-(2,2-dichloro-3-(3,5-dichlorophenyl)cyclopropane-1-carboxamido)benzamide], the pest or weed control at 50 µg/cm2 [1] is reported as 50 to 100%, the pest or weed control at 50 µg/cm2 [2] is reported as 50 to 100% and the “YFM (Biological Results, rating)” value [3] is reported as “A (80-100)”.
With O=C(Nc1ccccc1)c1cc(NC(=O)[C@H]2[C@H](c3cc(Cl)cc(Cl)c3)C2(Cl)Cl)cc(Cl)c1Cl (relative stereo) [F246, trans-2,3-Dichloro-5-(2,2-dichloro-3-(3,5-dichlorophenyl)cyclopropane-1-carboxamido)-N-phenylbenzamide] the pest or weed control at 50 µg/cm2 [1] was 50 to 100%, the pest or weed control at 50 µg/cm2 [2] was 50 to 100% and the “YFM (Biological Results, rating)” value [3] was “A (80-100)”.
In the case of O=C(Nc1ccc(F)cc1F)c1cc(NC(=O)[C@H]2[C@H](c3cc(Cl)cc(Cl)c3)C2(Cl)Cl)cc(Cl)c1Cl (relative stereo) [F247, trans-2,3-Dichloro-5-(2,2-dichloro-3-(3,5-dichlorophenyl)cyclopropane-1-carboxamido)-N-(2,4-difluorophenyl)benzamide], the pest or weed control at 50 µg/cm2 [1] is reported as 50 to 100%, the pest or weed control at 50 µg/cm2 [2] is reported as 50 to 100% and the “YFM (Biological Results, rating)” value [3] is reported as “A (80-100)”.
CC(=O)Nc1ccc(NC(=O)c2cc(NC(=O)[C@H]3[C@H](c4cc(Cl)cc(Cl)c4)C3(Cl)Cl)cc(Cl)c2Cl)cc1 (relative stereo) [F248, trans-N-(4-Acetamidophenyl)-2,3-dichloro-5-(2,2-dichloro-3-(3,5-dichlorophenyl)cyclopropane-1-carboxamido)benzamide] was tested, and the pest or weed control at 50 µg/cm2 [1] was 50 to 100%, the pest or weed control at 50 µg/cm2 [2] was 50 to 100% and the “YFM (Biological Results, rating)” value [3] was “A (80-100)”.
For CNc1ccc(NC(=O)c2cc(NC(=O)[C@H]3[C@H](c4cc(Cl)cc(Cl)c4)C3(Cl)Cl)cc(Cl)c2Cl)cc1 (relative stereo) [F249, trans-2,3-Dichloro-5-(2,2-dichloro-3-(3,5-dichlorophenyl)cyclopropane-1-carboxamido)-N-(4-(methylamino)phenyl)benzamide], the pest or weed control at 50 µg/cm2 [1] was 50 to 100%, the pest or weed control at 50 µg/cm2 [2] was 50 to 100% and the “YFM (Biological Results, rating)” value [3] was “A (80-100)”.
With COC(=O)C(O)(c1ccc(NC(=O)c2cc(NC(=O)[C@H]3[C@H](c4cc(Cl)cc(Cl)c4)C3(Cl)Cl)ccc2Cl)c(C)c1)C(F)(F)F (relative stereo) [F257, Methyl 2-(4-(2-chloro-5-(trans)-(2,2-dichloro-3-(3,5-dichlorophenyl)cyclopropane-1-carboxamido)benzamido)-3-methylphenyl)-3,3,3-trifluoro-2-hydroxypropanoate] the pest or weed control at 50 µg/cm2 [1] was 50 to 100%, the pest or weed control at 50 µg/cm2 [2] was 50 to 100% and the “YFM (Biological Results, rating)” value [3] was “A (80-100)”.
C=C(c1ccc(NC(=O)c2cc(NC(=O)[C@H]3[C@H](c4cc(Cl)cc(Cl)c4)C3(Cl)Cl)ccc2Cl)c(C)c1)C(F)(F)F (relative stereo) [F258, 2-Chloro-5-(trans)-(2,2-dichloro-3-(3,5-dichlorophenyl)cyclopropane-1-carboxamido)-N-(2-methyl-4-(3,3,3-trifluoroprop-1-en-2-yl)phenyl)benzamide] was tested, and the pest or weed control at 50 µg/cm2 [1] was 50 to 100%, the pest or weed control at 50 µg/cm2 [2] was 50 to 100% and the “YFM (Biological Results, rating)” value [3] was “B (More than 0-Less than 80)”.
In the case of O=C(Nc1ccccc1)c1cc(NC(=O)[C@H]2[C@H](c3ccc(F)c(Cl)c3)C2(Cl)Cl)ccc1Cl (relative stereo) [F259, trans-2-Chloro-5-(2,2-dichloro-3-(3-chloro-4-fluorophenyl)cyclopropane-1-carboxamido)-N-phenylbenzamide], the pest or weed control at 50 µg/cm2 [1] is reported as 50 to 100%, the pest or weed control at 50 µg/cm2 [2] is reported as 50 to 100% and the “YFM (Biological Results, rating)” value [3] is reported as “A (80-100)”.
In the case of CC(=O)Nc1ccc(NC(=O)c2cc(NC(=O)[C@H]3[C@H](c4ccc(F)c(Cl)c4)C3(Cl)Cl)ccc2Cl)cc1 (relative stereo) [F260, trans-N-(4-Acetamidophenyl)-2-chloro-5-(2,2-dichloro-3-(3-chloro-4-fluorophenyl)cyclopropane-1-carboxamido)benzamide], the pest or weed control at 50 µg/cm2 [1] is reported as 50 to 100%, the pest or weed control at 50 µg/cm2 [2] is reported as 50 to 100% and the “YFM (Biological Results, rating)” value [3] is reported as “A (80-100)”.
For CNc1ccc(NC(=O)c2cc(NC(=O)[C@H]3[C@H](c4ccc(F)c(Cl)c4)C3(Cl)Cl)ccc2Cl)cc1 (relative stereo) [F261, trans-2-Chloro-5-(2,2-dichloro-3-(3-chloro-4-fluorophenyl)cyclopropane-1-carboxamido)-N-(4-(methylamino)phenyl)benzamide], the pest or weed control at 50 µg/cm2 [1] was 50 to 100%, the pest or weed control at 50 µg/cm2 [2] was 50 to 100% and the “YFM (Biological Results, rating)” value [3] was “A (80-100)”.
With Cc1cc(NC(=O)OC(C)(C)C)ccc1NC(=O)c1cccc(NC(=O)[C@H]2[C@H](c3cc(Cl)c(Cl)c(Cl)c3)C2(Cl)Cl)c1 (relative stereo) [F262, trans-tert-Butyl (4-(3-(2,2-dichloro-3-(3,4,5-trichlorophenyl)cyclopropane-1-carboxamido)benzamido)-3-methylphenyl)carbamate] the pest or weed control at 50 µg/cm2 [1] was 50 to 100%, the pest or weed control at 50 µg/cm2 [2] was 50 to 100% and the “YFM (Biological Results, rating)” value [3] was “B (More than 0-Less than 80)”.
Cc1cc(NC(=O)OC(C)(C)C)ccc1NC(=O)c1cccc(NC(=O)[C@H]2[C@H](c3cc(Cl)cc(Cl)c3)C2(Cl)Cl)c1 (relative stereo) [F263, trans-tert-Butyl (4-(3-(2,2-dichloro-3-(3,5-dichlorophenyl)cyclopropane-1-carboxamido)benzamido)-3-methylphenyl)carbamate] was tested, and the pest or weed control at 50 µg/cm2 [1] was 50 to 100%, the pest or weed control at 50 µg/cm2 [2] was 50 to 100% and the “YFM (Biological Results, rating)” value [3] was “B (More than 0-Less than 80)”.
